{
  "source": "paper PMC7498065",
  "about": "“Isolation of antigen-specific, disulphide-rich knob domain peptides from bovine antibodies” (PLoS Biology, 2020)",
  "target": "Complement component C5 (Homo sapiens, UniProt P01031)",
  "sequence (P01031 19-673 limits assumed)": "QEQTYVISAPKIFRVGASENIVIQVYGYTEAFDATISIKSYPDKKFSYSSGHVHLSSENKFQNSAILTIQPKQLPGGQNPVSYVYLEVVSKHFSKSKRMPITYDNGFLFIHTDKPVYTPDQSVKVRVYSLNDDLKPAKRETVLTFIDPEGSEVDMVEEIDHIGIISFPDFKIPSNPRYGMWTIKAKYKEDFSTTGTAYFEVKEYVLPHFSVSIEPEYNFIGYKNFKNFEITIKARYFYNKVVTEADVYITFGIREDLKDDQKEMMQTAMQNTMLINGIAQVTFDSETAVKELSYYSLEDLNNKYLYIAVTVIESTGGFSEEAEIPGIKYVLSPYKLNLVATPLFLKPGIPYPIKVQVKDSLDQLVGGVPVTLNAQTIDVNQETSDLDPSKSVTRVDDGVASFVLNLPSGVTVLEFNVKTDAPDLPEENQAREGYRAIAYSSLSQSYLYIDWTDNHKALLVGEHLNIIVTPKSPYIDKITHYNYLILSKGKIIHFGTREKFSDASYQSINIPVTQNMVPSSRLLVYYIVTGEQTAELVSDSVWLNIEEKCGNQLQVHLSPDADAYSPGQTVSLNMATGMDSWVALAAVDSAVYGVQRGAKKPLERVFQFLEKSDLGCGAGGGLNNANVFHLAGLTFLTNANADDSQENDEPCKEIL",
  "sequence (P01031 678-1676 limits assumed)": "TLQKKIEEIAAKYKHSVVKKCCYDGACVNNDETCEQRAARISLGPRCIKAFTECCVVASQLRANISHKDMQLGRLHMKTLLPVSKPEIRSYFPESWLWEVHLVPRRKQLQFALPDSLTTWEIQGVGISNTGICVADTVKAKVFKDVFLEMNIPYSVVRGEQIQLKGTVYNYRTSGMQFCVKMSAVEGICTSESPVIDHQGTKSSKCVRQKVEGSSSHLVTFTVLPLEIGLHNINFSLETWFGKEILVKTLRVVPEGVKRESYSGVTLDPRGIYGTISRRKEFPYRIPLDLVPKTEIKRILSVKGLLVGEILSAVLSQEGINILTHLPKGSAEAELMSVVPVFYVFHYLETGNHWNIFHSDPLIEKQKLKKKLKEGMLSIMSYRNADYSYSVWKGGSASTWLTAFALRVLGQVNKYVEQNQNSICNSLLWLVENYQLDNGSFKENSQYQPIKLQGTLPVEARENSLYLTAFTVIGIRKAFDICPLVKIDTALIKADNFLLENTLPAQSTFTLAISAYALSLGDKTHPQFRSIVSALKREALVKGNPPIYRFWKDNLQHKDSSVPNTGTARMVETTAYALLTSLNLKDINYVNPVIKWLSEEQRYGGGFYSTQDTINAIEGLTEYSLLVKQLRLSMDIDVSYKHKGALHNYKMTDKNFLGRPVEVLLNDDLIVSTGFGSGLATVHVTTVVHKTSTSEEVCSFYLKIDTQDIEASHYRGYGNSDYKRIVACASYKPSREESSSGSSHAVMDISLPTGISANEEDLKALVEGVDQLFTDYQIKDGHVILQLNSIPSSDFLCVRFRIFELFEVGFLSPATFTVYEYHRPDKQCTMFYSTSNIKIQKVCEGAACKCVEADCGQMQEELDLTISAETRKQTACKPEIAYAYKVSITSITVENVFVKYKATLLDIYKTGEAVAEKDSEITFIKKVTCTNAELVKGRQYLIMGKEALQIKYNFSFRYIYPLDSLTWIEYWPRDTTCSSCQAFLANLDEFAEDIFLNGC",
  "assay": "Biacore SPR single-cycle kinetics of isolated knob domain peptides binding to C5",
  "protocol": "For knob domain peptides, flow cells were activated using a standard immobilisation protocol: EDC/NHS was mixed at 1:1 ratio (flow rate, 10 μL/min; contact time, 30 s). C5, at 1 μg/mL in pH 4.5 sodium-acetate buffer, was immobilized on flow cell 2 only (flow rate, 10 μL/min; contact time, 420 s). Finally, ethanolamine was applied to both flow cells (flow rate, 10 μL/min; contact time, 420 s). A final immobilization level of approximately 1,500–2,000 response units was obtained for peptide samples. For the PGT121-K149 fusion protein and K149 knob domain, the same immobilisation protocols were used but with a 750 ng/mL solution of C5, instead of 1 μg/mL.\nOne-micromolar stock solutions of the analytes (PGT121 knob domain fusion proteins and free knob domain peptides) were prepared in HBS-EP buffer. A series of six 3-fold dilutions of each stock solution was prepared in the same buffer. The result was 7 solutions for each analyte, at concentrations ranging from 1 μM down to 1.37 nM. A high flow rate of 40 μL/min was used, with a contact time of 230 s and a dissociation time of 1,800 s for knob domain peptides and 10,000 s for PGT121 knob domain fusion proteins. For the PGT121-K149 fusion protein and K149 knob domain, the flow rate was further increased to 100 μL/min. Binding to the reference surface was subtracted, and the data were fitted to a single-site binding model using Biacore evaluation software. Data were inspected for evidence of mass transport limitation using the flow-rate–independent component of the mass transfer constant (tc).",
  "note": "Entries after “also recorded” stand apart in the source; their conditions may differ. Where no end group is shown, it is not given here.",
  "data": [
    {"sequence": "GKSCREGYIDGGGCCLPGSCRGCACSYYDWLKCPRDCRGTSEEENLYFQ (also: bicyclic or more (positions not given here)) [K60, isolated bovine knob domain peptide, TEV-excised from PGT121 Fab]", "values": [
      {"measurement": "mean KD", "setting": "SPR single-cycle kinetics, 1:1 model, mean of 3 experiments (Fig 6)", "value": "not to bind; also recorded: Non-binding"},
      {"measurement": "Mean Stoichiometric ratio at 1 µM", "setting": "SPR, analyte 1 µM, mean of n=3 occasions", "value": "<0.1"},
      {"measurement": "Stoichiometric ratio at 1 µM", "setting": "occasion n=1", "value": "<0.1"},
      {"measurement": "Stoichiometric ratio at 1 µM", "setting": "occasion n=2", "value": "<0.1"},
      {"measurement": "Stoichiometric ratio at 1 µM", "setting": "occasion n=3", "value": "<0.1"}
    ]}
  ]
}
